The results in this text go back to patent US9056844B2, “4-substituted-3-benzyloxy-bicyclo[3.1.0]hexane compounds as mGluR 2/3 antagonists” (Eli Lilly and Company, priority 2010, dated 2015).

Some results are limits rather than exact numbers.

The term IC50 denotes the concentration that inhibits the measured activity by half.

The target in one experiment is T1, human mGlu2 receptors (Homo sapiens, UniProt Q14416).
T1 construct: expressed in transfected cells; host or cells: AV12 cells, co-expressing rat EAAT1
T1 sequence (Q14416 19-872): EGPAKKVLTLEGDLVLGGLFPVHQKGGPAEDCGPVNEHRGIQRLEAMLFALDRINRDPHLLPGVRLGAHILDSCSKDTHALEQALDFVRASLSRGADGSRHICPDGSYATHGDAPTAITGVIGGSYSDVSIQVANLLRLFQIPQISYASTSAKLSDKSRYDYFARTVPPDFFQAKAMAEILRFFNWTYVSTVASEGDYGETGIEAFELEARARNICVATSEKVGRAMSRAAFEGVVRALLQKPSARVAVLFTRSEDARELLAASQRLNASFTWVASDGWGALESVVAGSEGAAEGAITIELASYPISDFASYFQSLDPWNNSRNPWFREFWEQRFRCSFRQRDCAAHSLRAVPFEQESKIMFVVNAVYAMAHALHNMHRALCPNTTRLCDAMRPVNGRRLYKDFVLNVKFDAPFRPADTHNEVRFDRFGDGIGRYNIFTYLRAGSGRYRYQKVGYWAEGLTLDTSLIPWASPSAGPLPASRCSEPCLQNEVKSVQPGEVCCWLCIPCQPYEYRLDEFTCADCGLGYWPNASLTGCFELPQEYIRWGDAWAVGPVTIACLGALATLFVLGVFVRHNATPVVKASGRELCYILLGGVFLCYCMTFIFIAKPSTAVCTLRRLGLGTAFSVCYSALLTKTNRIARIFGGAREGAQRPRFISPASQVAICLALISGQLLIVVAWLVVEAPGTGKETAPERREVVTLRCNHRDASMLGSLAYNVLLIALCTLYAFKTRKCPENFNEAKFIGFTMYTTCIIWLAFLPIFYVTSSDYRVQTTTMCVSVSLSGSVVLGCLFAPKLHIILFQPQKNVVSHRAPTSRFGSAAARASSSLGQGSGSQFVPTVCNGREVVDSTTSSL
Description: mGlu2 receptor cAMP antagonist assay. The experiment is classed as cell-based. Conditions: reversal of DCG IV (EC90) inhibition of forskolin-stimulated cAMP; AV12 cells. On the procedure:
mGlu2 and mGlu3 Receptor cAMP Antagonist Assays
Antagonist activity is assayed in recombinant AV12 cells stably expressing human mGlu2 or mGlu3 receptors and the rat glutamate transporter EAAT1 (Excitatory Amino Acid Transporter 1). The cell lines are maintained by culturing in DMEM with high glucose and pyridoxine hydrochloride supplemented with 5% dialyzed fetal bovine serum (FBS), 1 mM sodium pyruvate, 1 mM HEPES and 1 mM L-glutamine; geneticin and hygromycin B are used as selection antibiotics.
Reversal of the inhibition of forskolin-stimulated cAMP production by test compounds is measured using homogeneous time resolved fluorescence technology (HTRF; Cisbio cat #62AM4PEB). The medium is removed and the cells are incubated with 100 μl cAMP stimulation buffer (STIM) for 30 minutes at 37° C. […] Cells are incubated at 37° C. for 20 minutes. To measure the cAMP levels, cAMP-d2 conjugate and anti cAMP-cryptate conjugate in lysis buffer are incubated with the treated cells at room temperature for 1 hour (mGlu2) or 1.5 hour (mGlu3). […] The raw data are converted to cAMP amount (pmole/well) using a cAMP standard curve generated for each experiment. Relative IC50 values are calculated from the top-bottom range of the concentration response curve using a four-parameter logistic curve fitting program (ActivityBase v5.3.1.22).

The target in another experiment is T2, human mGlu1 receptor (Homo sapiens, UniProt Q13255).
T2 construct: expressed in transfected cells; host or cells: AV12 cells, co-expressing rat EAAT1
T2 sequence (Q13255 19-1194): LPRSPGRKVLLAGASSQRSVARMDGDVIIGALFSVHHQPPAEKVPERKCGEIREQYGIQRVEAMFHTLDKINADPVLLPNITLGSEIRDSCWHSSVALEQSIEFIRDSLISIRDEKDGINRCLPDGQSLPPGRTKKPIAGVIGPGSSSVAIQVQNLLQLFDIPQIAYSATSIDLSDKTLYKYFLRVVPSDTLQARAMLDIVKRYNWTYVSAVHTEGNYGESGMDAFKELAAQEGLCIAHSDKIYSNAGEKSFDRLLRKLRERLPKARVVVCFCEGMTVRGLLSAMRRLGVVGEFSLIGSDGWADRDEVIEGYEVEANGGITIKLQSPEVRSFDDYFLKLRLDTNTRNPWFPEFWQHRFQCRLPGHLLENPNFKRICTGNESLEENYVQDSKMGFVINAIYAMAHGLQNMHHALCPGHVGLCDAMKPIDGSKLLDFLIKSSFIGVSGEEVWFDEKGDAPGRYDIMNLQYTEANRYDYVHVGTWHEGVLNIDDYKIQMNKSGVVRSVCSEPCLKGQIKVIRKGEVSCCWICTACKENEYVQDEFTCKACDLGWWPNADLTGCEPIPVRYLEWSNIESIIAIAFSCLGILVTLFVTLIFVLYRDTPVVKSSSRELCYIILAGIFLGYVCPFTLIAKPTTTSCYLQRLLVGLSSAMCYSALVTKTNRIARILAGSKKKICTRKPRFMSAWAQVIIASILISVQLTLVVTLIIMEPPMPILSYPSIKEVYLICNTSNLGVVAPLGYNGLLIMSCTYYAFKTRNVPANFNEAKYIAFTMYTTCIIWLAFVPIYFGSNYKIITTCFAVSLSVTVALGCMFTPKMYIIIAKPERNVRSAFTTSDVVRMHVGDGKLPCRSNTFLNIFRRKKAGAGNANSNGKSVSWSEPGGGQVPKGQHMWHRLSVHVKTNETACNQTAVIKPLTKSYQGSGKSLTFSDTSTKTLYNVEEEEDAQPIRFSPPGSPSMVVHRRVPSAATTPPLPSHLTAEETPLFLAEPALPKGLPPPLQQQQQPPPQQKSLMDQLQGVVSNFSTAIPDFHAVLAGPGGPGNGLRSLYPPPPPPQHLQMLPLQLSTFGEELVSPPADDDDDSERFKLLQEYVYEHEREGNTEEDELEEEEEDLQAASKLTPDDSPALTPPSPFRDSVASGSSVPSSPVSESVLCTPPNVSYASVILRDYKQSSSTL
Description: FLIPR calcium assay for mGlu receptor selectivity, mGlu1 antagonist mode. The experiment is classed as cell-based. Conditions: inhibition of EC90 glutamate response, read-out: mGlu1 % inhib. @12.5 μM. The source says: (§1) FLIPR and cAMP Assays for mGlu Receptor Selectivity
(§2) The relative antagonist potencies of the compounds of the invention for the other human mGlu receptors can be assessed with either a cAMP assay or fluorometric calcium response assay (see for example Fell et al., JPET (in press)). Briefly, individual AV12 cell lines containing the rat EAAT1 glutamate transporter and stably expressing the human mGlu1, 2, 3, 4, 5, 6, & 8 receptors are used for these studies. The mGlu1 and 5 receptors are […], so they naturally signal through phospholipase C, producing a calcium flux response which can be used to measure receptor activation using a Fluorometric Imaging Plate Reader (FLIPR, Molecular Devices). The cell lines expressing the mGlu2, 3, 4, and 8 receptor are designed to express the Gα15 subunit so that these Gi-coupled receptors will generate a calcium flux response similar to the mGlu1 and 5 receptor expressing cell lines. The mGlu6 receptor is tested in a cAMP format using methods analogous to those developed for mGlu2 and mGlu3 above. These cell lines are maintained as previously described except that amounts of L-glutamine and selection agents (geneticin, hygromycin B, zeocin, and blasticidin) may vary depending on the cell line. Confluent cultures are passaged biweekly.
(§3) Intracellular calcium levels are monitored using FLIPR before and after the addition of test compounds and Fluo-3 AM (Invitrogen) or Calcium 4 (Molecular Devices) dye, depending on the cell line. Cells are plated 24 hours prior to assay in a variable concentration of glutamine and a variable density of cells per well, depending on the cell line. The medium is removed and the cells are incubated with 8 μM of dye (50 μl per well) for 90 or 120 minutes (depending on cell line) at 25° C. A single-addition FLIPR assay generating an 11-point concentration response curve for the agonist glutamate is conducted prior to each experiment to confirm the appropriate sensitivity of the cells. The results are analyzed using GraphPad Prism v4.03 to calculate the concentrations of glutamate needed to induce the EC90 (antagonist assay) and EC10 (potentiator assay) responses.
(§4) Compounds are tested at each mGlu receptor in a two-addition FLIPR assay using a 10-point concentration response profile starting at a final concentration of 25 μM for the agonist assay and 12.5 μM for the potentiator and antagonist assays. The first addition detects any agonist activity, and the second addition consists of 100 μl of select concentrations (depending on cell line) of glutamate in assay buffer generating an EC10 or EC90 glutamate response. Agonist effects are quantified as percent stimulation induced by compound alone relative to the maximal glutamate response. Antagonist effects are quantified by calculating the percent inhibition of the EC90 glutamate response caused by the compound. Potentiation effects are quantified as percent increase in the presence of an EC10 response in glutamate relative to the ECmax response. All data are calculated as relative IC50 or EC50 values using a four-parameter logistic curve fitting program (ActivityBase v5.3.1.22).

The target in the next experiment is T3, human mGlu4 receptor (Homo sapiens, UniProt Q14833).
T3 construct: expressed in transfected cells; host or cells: AV12 cells, co-expressing rat EAAT1 and Galpha15
T3 sequence (Q14833 33-912): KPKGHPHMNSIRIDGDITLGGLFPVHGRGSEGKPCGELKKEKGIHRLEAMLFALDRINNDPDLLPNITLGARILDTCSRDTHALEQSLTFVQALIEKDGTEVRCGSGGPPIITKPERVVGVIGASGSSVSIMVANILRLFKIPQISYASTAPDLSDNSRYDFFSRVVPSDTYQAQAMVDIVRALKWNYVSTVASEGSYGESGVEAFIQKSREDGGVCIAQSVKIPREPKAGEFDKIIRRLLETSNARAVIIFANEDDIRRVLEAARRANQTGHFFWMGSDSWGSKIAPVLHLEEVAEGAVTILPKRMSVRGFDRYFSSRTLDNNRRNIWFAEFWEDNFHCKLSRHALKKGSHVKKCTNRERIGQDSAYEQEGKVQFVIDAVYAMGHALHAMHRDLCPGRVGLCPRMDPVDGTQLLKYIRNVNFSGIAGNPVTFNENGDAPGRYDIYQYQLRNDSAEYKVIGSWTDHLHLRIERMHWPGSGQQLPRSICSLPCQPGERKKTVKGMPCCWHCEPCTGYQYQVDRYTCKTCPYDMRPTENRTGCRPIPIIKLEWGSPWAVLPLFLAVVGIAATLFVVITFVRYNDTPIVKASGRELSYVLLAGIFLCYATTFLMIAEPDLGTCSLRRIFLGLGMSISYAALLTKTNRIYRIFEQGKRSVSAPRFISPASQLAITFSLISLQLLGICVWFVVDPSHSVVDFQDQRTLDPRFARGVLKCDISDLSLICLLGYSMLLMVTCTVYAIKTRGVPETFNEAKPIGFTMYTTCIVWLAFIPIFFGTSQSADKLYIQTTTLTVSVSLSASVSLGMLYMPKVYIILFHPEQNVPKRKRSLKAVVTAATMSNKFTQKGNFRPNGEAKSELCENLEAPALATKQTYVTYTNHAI
Description: FLIPR calcium assay for mGlu receptor selectivity, mGlu4 antagonist mode. Conditions: inhibition of EC90 glutamate response, read-out: mGlu4 % inhib. @12.5 μM. The experiment is classed as cell-based.
From the text: as §1, §2, §3, §4

In a further experiment the target is T4, human mGlu5 receptor (Homo sapiens, UniProt P41594).
T4 construct: expressed in transfected cells; host or cells: AV12 cells, co-expressing rat EAAT1
T4 sequence (P41594 19-1212 limits assumed): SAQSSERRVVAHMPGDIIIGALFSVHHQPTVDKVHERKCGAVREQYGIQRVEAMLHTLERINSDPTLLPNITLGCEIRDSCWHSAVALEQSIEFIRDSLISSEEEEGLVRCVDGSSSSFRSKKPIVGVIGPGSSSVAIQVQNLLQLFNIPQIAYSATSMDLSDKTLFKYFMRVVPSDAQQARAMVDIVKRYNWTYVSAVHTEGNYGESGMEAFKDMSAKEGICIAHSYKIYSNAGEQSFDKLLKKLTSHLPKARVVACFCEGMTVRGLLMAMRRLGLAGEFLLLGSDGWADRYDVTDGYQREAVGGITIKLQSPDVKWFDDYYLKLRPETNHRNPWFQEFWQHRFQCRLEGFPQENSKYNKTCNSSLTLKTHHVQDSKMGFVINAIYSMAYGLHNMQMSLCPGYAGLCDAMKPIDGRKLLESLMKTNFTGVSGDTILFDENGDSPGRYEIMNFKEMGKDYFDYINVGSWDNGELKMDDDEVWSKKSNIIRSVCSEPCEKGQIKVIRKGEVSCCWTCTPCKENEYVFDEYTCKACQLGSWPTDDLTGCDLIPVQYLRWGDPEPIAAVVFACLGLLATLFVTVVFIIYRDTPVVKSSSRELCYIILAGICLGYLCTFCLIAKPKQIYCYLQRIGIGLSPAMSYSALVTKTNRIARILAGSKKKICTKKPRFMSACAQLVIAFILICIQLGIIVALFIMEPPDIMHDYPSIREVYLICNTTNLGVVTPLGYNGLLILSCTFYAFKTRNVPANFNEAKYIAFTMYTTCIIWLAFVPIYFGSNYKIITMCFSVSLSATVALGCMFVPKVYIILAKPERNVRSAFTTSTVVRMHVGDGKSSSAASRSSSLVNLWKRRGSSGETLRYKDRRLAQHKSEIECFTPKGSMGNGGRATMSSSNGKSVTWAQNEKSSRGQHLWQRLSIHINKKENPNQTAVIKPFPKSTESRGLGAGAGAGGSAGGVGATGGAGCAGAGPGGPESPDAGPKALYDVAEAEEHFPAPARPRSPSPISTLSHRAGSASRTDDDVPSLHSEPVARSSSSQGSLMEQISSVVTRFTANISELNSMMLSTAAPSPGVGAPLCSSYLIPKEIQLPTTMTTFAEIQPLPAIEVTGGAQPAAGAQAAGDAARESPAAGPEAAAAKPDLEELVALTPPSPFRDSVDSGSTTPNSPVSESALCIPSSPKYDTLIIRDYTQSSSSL
Description: FLIPR calcium assay for mGlu receptor selectivity, mGlu5 antagonist mode. The experiment is classed as cell-based. Conditions: inhibition of EC90 glutamate response, read-out: mGlu5 % inhib. @12.5 μM.
From the text: as §1, §2, §3, §4

The next experiment concerns the target T5, human mGlu8 receptor (Homo sapiens, UniProt O00222).
T5 construct: expressed in transfected cells; host or cells: AV12 cells, co-expressing rat EAAT1 and Galpha15
Description: FLIPR calcium assay for mGlu receptor selectivity, mGlu8 antagonist mode. In kind it is cell-based. Conditions: for inhibition at 12.5 µM: inhibition of EC90 glutamate response, read-out: mGlu8 % inhib. @12.5 μM; for IC50: printed in brackets below the % inhib. value.
From the text: as §1, §2, §3, §4

A further experiment relates to male NIH-Swiss mice. Description: Forced-swim test in mice (mFST). Conditions: for ED60: Mus musculus, ip, immobility in last 4 min of 6 min; for Maximal Decrease (1 − compound/control) * 100%: i.p., immobility time. The experiment is classed as in vivo, mouse. The source says:
Forced-Swim Test in Mice (mFST)
mFST is an established in vivo assay for antidepressant activity (Li et al. J Pharmacol Exp Ther. 319(1):254-9, 2006.). […] The mFST was used to evaluate potential antidepressant-like activity of novel mGlu2/3 antagonists essentially as described in previously published methods (see for example, Li et al. J Pharmacol Exp Ther. 319(1):254-9, 2006.). Briefly, male NIH-Swiss mice (Harlan Sprague-Dawley, Indianapolis, Ind.) weighing between 25-30 g are used. Group housed animals are removed from the vivarium to the testing area in their own cages and allowed to adapt to the new environment for at least 1 hour before testing. Compounds where R^1 and R^2 are both hydrogen are dissolved in water with minimal NaOH added for dissolution and are administered i.p. Compounds where R^1 and/or R^2 are other than hydrogen are prepared on the day of use in 2.0-2.5% N-methyl-pyrrolidinone and then suspended in 1% HEC, 0.25% Tween 80, and 0.05% Dow antifoam, and administered orally. Mice are placed in a cylinder (diameter: 10 cm; height: 25 cm) filled with 6 cm of water (22-25° C.) for 6 min. The duration of immobility during the last 4 min. of the 6 min. period of the test was scored. A mouse is recorded as immobile when floating motionless or making only those movements necessary to keep its head above water.

T5 sequence (O00222 34-908): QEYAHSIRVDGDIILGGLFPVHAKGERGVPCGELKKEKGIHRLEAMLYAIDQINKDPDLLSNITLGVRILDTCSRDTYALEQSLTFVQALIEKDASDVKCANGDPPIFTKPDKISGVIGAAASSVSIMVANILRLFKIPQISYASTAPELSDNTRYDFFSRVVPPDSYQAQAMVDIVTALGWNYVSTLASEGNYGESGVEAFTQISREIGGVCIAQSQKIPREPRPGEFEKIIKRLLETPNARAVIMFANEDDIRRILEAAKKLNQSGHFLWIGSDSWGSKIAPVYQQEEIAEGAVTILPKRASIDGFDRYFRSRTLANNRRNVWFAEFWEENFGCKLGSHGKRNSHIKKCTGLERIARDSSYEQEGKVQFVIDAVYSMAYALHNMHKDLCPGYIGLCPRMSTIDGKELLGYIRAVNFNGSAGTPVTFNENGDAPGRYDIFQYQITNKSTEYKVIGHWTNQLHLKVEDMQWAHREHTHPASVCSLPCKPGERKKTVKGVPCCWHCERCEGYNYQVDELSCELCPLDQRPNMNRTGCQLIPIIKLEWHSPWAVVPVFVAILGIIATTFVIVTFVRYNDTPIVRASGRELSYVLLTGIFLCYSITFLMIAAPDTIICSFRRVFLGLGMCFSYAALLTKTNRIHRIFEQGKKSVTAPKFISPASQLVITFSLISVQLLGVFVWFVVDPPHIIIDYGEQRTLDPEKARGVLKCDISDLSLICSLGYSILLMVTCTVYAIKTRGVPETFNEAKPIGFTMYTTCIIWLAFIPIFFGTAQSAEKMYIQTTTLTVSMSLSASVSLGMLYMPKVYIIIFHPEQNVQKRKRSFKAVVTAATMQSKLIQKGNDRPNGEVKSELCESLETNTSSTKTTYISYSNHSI

As for `Cl.Cn1cnc(S[C@H]2[C@H]3[C@H](C(=O)O)[C@H]3[C@](N)(C(=O)O)[C@@H]2OCc2ccc(Cl)c(Cl)c2)n1` [Example 7, (1R,2R,3S,4S,5R,6R)-2-Amino-3-[(3,4-dichlorophenyl)methoxy]-4-[(1-methyl-1,2,4-triazol-3-yl)sulfanyl]bicyclo[3.1.0]hexane-2,6-dicarboxylic acid hydrochloride.], the IC50 on human mGlu2 receptors stood at 52 ± 17.9 nM. Besides, the inhibition at 12.5 µM on human mGlu1 receptor worked out at 11.2%; at human mGlu4 receptor, 32.2%; at human mGlu5 receptor it was 22.7%; on human mGlu8 receptor it was 46.7%. In addition, the ED60 in the experiment on male NIH-Swiss mice was greater than 10 mg/kg. Besides, the “Maximal Decrease (1 − compound/control) * 100%” value in the experiment on male NIH-Swiss mice came out at 18%.
`N[C@]1(C(=O)O)[C@@H]2[C@@H](C(=O)O)[C@@H]2[C@H](O)[C@H]1OCc1ccc(Cl)c(Cl)c1` [Example 1, (1S,2R,3S,4S,5R,6R)-2-Amino-3-[(3,4-dichlorobenzyl)oxy]-4-hydroxybicyclo[3.1.0]hexane-2,6-dicarboxylic acid]: the IC50 on human mGlu2 receptors amounted to 43.3 ± 5.8 nM; at human mGlu8 receptor it was 1900 nM. Moreover, the inhibition at 12.5 µM is -0.47% on human mGlu1 receptor, 28.5% at human mGlu4 receptor, 4.8% on human mGlu5 receptor and 78.4% at human mGlu8 receptor. In the experiment with male NIH-Swiss mice, this compound had an ED60 of 1 mg/kg. Further, the “Maximal Decrease (1 − compound/control) * 100%” value in the experiment with male NIH-Swiss mice was determined as 59%.
With `N[C@]1(C(=O)O)[C@@H]2[C@@H](C(=O)O)[C@@H]2[C@H](Sc2nc[nH]n2)[C@H]1OCc1ccc(Cl)c(Cl)c1` [Example 2, (1R,2R,3S,4S,5R,6R)-2-Amino-3-[(3,4-dichlorobenzyl)oxy]-4-(1H-1,2,4-triazol-3-ylsulfanyl)bicyclo[3.1.0]hexane-2,6-dicarboxylic acid], the IC50 at human mGlu2 receptors amounted to 13.1 ± 1.9 nM; at human mGlu8 receptor, 507 nM. Further, the inhibition at 12.5 µM at human mGlu1 receptor was 8.6%; on human mGlu4 receptor, 69%; at human mGlu5 receptor, -12.9%; at human mGlu8 receptor it was 92.3%. For the same compound, in the experiment with male NIH-Swiss mice, the ED60 is 2.08 mg/kg. Further, the “Maximal Decrease (1 − compound/control) * 100%” value in the experiment on male NIH-Swiss mice is 62%.
Take `Cl.N[C@]1(C(=O)O)[C@@H]2[C@@H](C(=O)O)[C@@H]2[C@H](NC(=O)CO)[C@H]1OCc1ccc(Cl)c(Cl)c1` [Example 9, (1S,2R,3R,4S,5R,6S)-2-Amino-3-[(3,4-dichlorobenzyl)oxy]-4-[(hydroxyacetyl)amino]bicyclo[3.1.0]hexane-2,6-dicarboxylic acid hydrochloride]: the IC50 on human mGlu2 receptors is 22 ± 3 nM. Moreover, the inhibition at 12.5 µM at human mGlu1 receptor came to 5%; at human mGlu4 receptor, 46.9%; at human mGlu5 receptor, 13.8%; on human mGlu8 receptor it was 13.3%. Moreover, the ED60 in the experiment on male NIH-Swiss mice stood at 9.68 mg/kg. For the same compound, the “Maximal Decrease (1 − compound/control) * 100%” value in the experiment on male NIH-Swiss mice is 41%.
Take `CC(=O)N[C@H]1[C@H]2[C@H](C(=O)O)[C@H]2[C@](N)(C(=O)O)[C@@H]1OCc1ccc(Cl)c(Cl)c1` [Example 4, (1S,2R,3R,4S,5R,6S)-4-(Acetylamino)-2-amino-3-[(3,4-dichlorobenzyl)oxy]bicyclo[3.1.0]hexane-2,6-dicarboxylic acid]: at human mGlu2 receptors, the IC50 was 25.5 ± 2.8 nM. Besides, the inhibition at 12.5 µM on human mGlu1 receptor was -2%; on human mGlu4 receptor, 13.3%; at human mGlu5 receptor it was 22.6%; at human mGlu8 receptor, 23.4%. For the same compound, the ED60 in the experiment with male NIH-Swiss mice turned out to be 9.5 mg/kg. Also, the “Maximal Decrease (1 − compound/control) * 100%” value in the experiment with male NIH-Swiss mice turned out to be 38%.
